Experimental data published in ChEMBL document CHEMBL1135358, “Antifungal sordarins. Synthesis and structure-activity relationships of 3'-O-substituted derivatives” (2002).
≈ marks a conversion by molar mass, not a printed value.

Experiments:
Assay type in all cases: functional
Candida albicans [1] = assay: In vitro Minimum inhibitory concentration (MIC) for antifungal activity against Candida albicans 2402
Cryptococcus neoformans [2] = assay: In vitro Minimum inhibitory concentration (MIC) for antifungal activity against Cryptococcus neoformans 2867
Candida albicans [3] = assay: In vitro Minimum inhibitory concentration (MIC) for antifungal activity against Candida albicans 1208
Candida tropicalis [4] = assay: In vitro Minimum inhibitory concentration (MIC) for antifungal activity against Candida tropicalis 2808
Kluyveromyces marxianus [5] = assay: In vitro Minimum inhibitory concentration (MIC) for antifungal activity against Candida pseudotropicalis 2371
Candida albicans [6] = assay: In vitro Minimum inhibitory concentration (MIC) for antifungal activity against Candida albicans 2005
Cryptococcus neoformans [7] = assay: In vitro Minimum inhibitory concentration (MIC) for antifungal activity against Cryptococcus neoformans 2867E
Candida albicans [8] = assay: In vitro Minimum inhibitory concentration (MIC) for antifungal activity against Candida albicans 2402E
Candida albicans [9] = assay: In vitro Minimum inhibitory concentration (MIC) for antifungal activity against Candida albicans 1208E
Candida tropicalis [10] = assay: In vitro Minimum inhibitory concentration (MIC) for antifungal activity against Candida tropicalis 2808E
Kluyveromyces marxianus [11] = assay: In vitro Minimum inhibitory concentration (MIC) for antifungal activity against Candida pseudotropicalis 2371E
Candida albicans [12] = assay: In vitro Minimum inhibitory concentration (MIC) for antifungal activity against Candida albicans 2005E

MIC (Candida albicans [1]) [µg/mL] | MIC (Cryptococcus neoformans [2]) [µg/mL] | MIC (Candida albicans [3]) [µg/mL] | MIC (Candida tropicalis [4]) [µg/mL] | MIC (Kluyveromyces marxianus [5]) [µg/mL] | MIC (Candida albicans [6]) [µg/mL] | MIC (Cryptococcus neoformans [7]) [µg/mL] | MIC (Candida albicans [8]) [µg/mL] | MIC (Candida albicans [9]) [µg/mL] | MIC (Candida tropicalis [10]) [µg/mL] | MIC (Kluyveromyces marxianus [11]) [µg/mL] | MIC (Candida albicans [12]) [µg/mL] | Structure (SMILES)
0.25 (≈ 0.423 µM) | 16 (≈ 27.1 µM) | 0.25 (≈ 0.423 µM) | 0.03 (≈ 0.0508 µM) | 0.01 (≈ 0.0169 µM) | 0.015 (≈ 0.0254 µM) |  |  |  |  |  |  | CCCCCC(=O)OC1C(O)[C@H](OCC23C[C@@H]4[C@H](C)CC[C@H]4C4(C=O)CC2C=C(C(C)C)C34C(=O)O)O[C@H](C)[C@H]1OC (single isomer, unassigned)
 |  |  |  |  |  | 31 (≈ 53.7 µM) | 2 (≈ 3.47 µM) | 4 (≈ 6.94 µM) | 1 (≈ 1.73 µM) | 0.25 (≈ 0.433 µM) | 0.25 (≈ 0.433 µM) | CCCCCCOC1[C@H](O)[C@H](OCC23C[C@@H]4[C@H](C)CC[C@H]4C4(C=O)CC2C=C(C(C)C)C34C(=O)O)O[C@H](C)[C@H]1OC (single isomer, unassigned)
0.5 (≈ 0.83 µM) | 62 (≈ 103 µM) | 1 (≈ 1.66 µM) | 0.5 (≈ 0.83 µM) | 0.12 (≈ 0.199 µM) | 0.015 (≈ 0.0249 µM) |  |  |  |  |  |  | CCC/C=C(\C)C(=O)O[C@H]1C(O)[C@H](OCC23C[C@@H]4[C@H](C)CC[C@H]4C4(C=O)CC2C=C(C(C)C)C34C(=O)O)O[C@H](C)[C@H]1OC (some centres undefined)
2 (≈ 3.09 µM) | 31 (≈ 47.9 µM) | 4 (≈ 6.17 µM) | 2 (≈ 3.09 µM) | 1 (≈ 1.54 µM) | 0.06 (≈ 0.0926 µM) |  |  |  |  |  |  | CCCCCCCCNC(=O)O[C@H]1C(O)[C@H](OCC23C[C@@H]4[C@H](C)CC[C@H]4C4(C=O)CC2C=C(C(C)C)C34C(=O)O)O[C@H](C)[C@H]1OC (some centres undefined)
2 (≈ 3.27 µM) | 16 (≈ 26.2 µM) | 2 (≈ 3.27 µM) | 1 (≈ 1.64 µM) | 0.25 (≈ 0.409 µM) | 0.12 (≈ 0.196 µM) |  |  |  |  |  |  | CO[C@H]1C(OC(=O)CCCCCl)C(O)[C@H](OCC23C[C@@H]4[C@H](C)CC[C@H]4C4(C=O)CC2C=C(C(C)C)C34C(=O)O)O[C@@H]1C (single isomer, unassigned)
2 (≈ 3.55 µM) | > 125 | 1 (≈ 1.78 µM) | 2 (≈ 3.55 µM) | 0.5 (≈ 0.889 µM) | 0.25 (≈ 0.444 µM) |  |  |  |  |  |  | CCCC(=O)OC1C(O)[C@H](OCC23C[C@@H]4[C@H](C)CC[C@H]4C4(C=O)CC2C=C(C(C)C)C34C(=O)O)O[C@H](C)[C@H]1OC (single isomer, unassigned)
1 (≈ 1.68 µM) | > 125 | 1 (≈ 1.68 µM) | 0.5 (≈ 0.838 µM) | 0.25 (≈ 0.419 µM) | 0.12 (≈ 0.201 µM) |  |  |  |  |  |  | CO[C@H]1C(OC(=O)c2ccccc2)C(O)[C@H](OCC23C[C@@H]4[C@H](C)CC[C@H]4C4(C=O)CC2C=C(C(C)C)C34C(=O)O)O[C@@H]1C (single isomer, unassigned)

Continued, compound first:

Structure (SMILES) | MIC (Candida albicans [1]) [µg/mL] | MIC (Cryptococcus neoformans [2]) [µg/mL] | MIC (Candida albicans [3]) [µg/mL] | MIC (Candida tropicalis [4]) [µg/mL] | MIC (Kluyveromyces marxianus [5]) [µg/mL] | MIC (Candida albicans [6]) [µg/mL] | MIC (Cryptococcus neoformans [7]) [µg/mL] | MIC (Candida albicans [8]) [µg/mL] | MIC (Candida albicans [9]) [µg/mL] | MIC (Candida tropicalis [10]) [µg/mL] | MIC (Kluyveromyces marxianus [11]) [µg/mL] | MIC (Candida albicans [12]) [µg/mL]
C/C=C/C=C(\C)C(=O)O[C@H]1C(O)[C@H](OCC23C[C@@H]4[C@H](C)CC[C@H]4C4(C=O)CC2C=C(C(C)C)C34C(=O)O)O[C@H](C)[C@H]1OC (some centres undefined) | 0.03 (≈ 0.0499 µM) | 0.25 (≈ 0.416 µM) | 0.25 (≈ 0.416 µM) | 0.06 (≈ 0.0999 µM) | 0.03 (≈ 0.0499 µM) | 0.015 (≈ 0.025 µM) |  |  |  |  |  | 
CO[C@@H]1[C@@H](C)O[C@@H](OCC23C[C@@H]4[C@H](C)CC[C@H]4C4(C=O)CC2C=C(C(C)C)C34C(=O)O)C(O)[C@@H]1OC(=O)OCc1ccccc1 (some centres undefined) | 8 (≈ 12.8 µM) | > 62 | 8 (≈ 12.8 µM) | 8 (≈ 12.8 µM) | 2 (≈ 3.19 µM) | 2 (≈ 3.19 µM) |  |  |  |  |  | 
CO[C@H]1[C@@H](OC(=O)OCc2ccccc2)[C@H](OC(=O)OCc2ccccc2)[C@H](OCC23C[C@@H]4[C@H](C)CC[C@H]4C4(C=O)CC2C=C(C(C)C)C34C(=O)O)O[C@@H]1C (some centres undefined) |  |  |  |  |  |  | > 62 | > 62 | > 62 | > 62 | > 62 | 62 (≈ 81.5 µM)
CO[C@H]1C(OC(=O)c2ccco2)C(O)[C@H](OCC23C[C@@H]4[C@H](C)CC[C@H]4C4(C=O)CC2C=C(C(C)C)C34C(=O)O)O[C@@H]1C (single isomer, unassigned) | 16 (≈ 27.3 µM) | > 125 | 16 (≈ 27.3 µM) | 8 (≈ 13.6 µM) | 4 (≈ 6.82 µM) | 2 (≈ 3.41 µM) |  |  |  |  |  | 
CCCCC(C)C(=O)OC1C(O)[C@H](OCC23C[C@@H]4[C@H](C)CC[C@H]4C4(C=O)CC2C=C(C(C)C)C34C(=O)O)O[C@H](C)[C@H]1OC (single isomer, unassigned) | 0.06 (≈ 0.0992 µM) | 8 (≈ 13.2 µM) | 0.12 (≈ 0.198 µM) | 0.25 (≈ 0.413 µM) | 0.06 (≈ 0.0992 µM) | 0.008 (≈ 0.0132 µM) |  |  |  |  |  | 
CCCCCCCCOC(=O)O[C@H]1C(O)[C@H](OCC23C[C@@H]4[C@H](C)CC[C@H]4C4(C=O)CC2C=C(C(C)C)C34C(=O)O)O[C@H](C)[C@H]1OC (some centres undefined) | 0.5 (≈ 0.771 µM) | 8 (≈ 12.3 µM) | 1 (≈ 1.54 µM) | 8 (≈ 12.3 µM) | 0.12 (≈ 0.185 µM) | 0.25 (≈ 0.385 µM) |  |  |  |  |  | 
CCCCCCCCCC(=O)OC1C(O)[C@H](OCC23C[C@@H]4[C@H](C)CC[C@H]4C4(C=O)CC2C=C(C(C)C)C34C(=O)O)O[C@H](C)[C@H]1OC (single isomer, unassigned) | 1 (≈ 1.55 µM) | 1 (≈ 1.55 µM) | 1 (≈ 1.55 µM) | 8 (≈ 12.4 µM) | 0.25 (≈ 0.386 µM) | 0.25 (≈ 0.386 µM) |  |  |  |  |  | 
CCCCCCCC(=O)OC1C(O)[C@H](OCC23C[C@@H]4[C@H](C)CC[C@H]4C4(C=O)CC2C=C(C(C)C)C34C(=O)O)O[C@H](C)[C@H]1OC (single isomer, unassigned) | 0.03 (≈ 0.0485 µM) | 0.25 (≈ 0.404 µM) | 0.06 (≈ 0.097 µM) | 0.06 (≈ 0.097 µM) | 0.004 (≈ 0.00646 µM) | < 0.001 |  |  |  |  |  | 
COC1C(O)C(O)[C@H](OCC23C[C@@H]4[C@H](C)CC[C@H]4C4(C=O)CC2C=C(C(C)C)C34C(=O)O)O[C@@H]1C (single isomer, unassigned) | 31 (≈ 62.9 µM) | > 125 | 31 (≈ 62.9 µM) | 16 (≈ 32.5 µM) | 16 (≈ 32.5 µM) | 8 (≈ 16.2 µM) |  |  |  |  |  | 
COCC(=O)OC1C(O)[C@H](OCC23C[C@@H]4[C@H](C)CC[C@H]4C4(C=O)CC2C=C(C(C)C)C34C(=O)O)O[C@H](C)[C@H]1OC (single isomer, unassigned) | 125 (≈ 221 µM) | 125 (≈ 221 µM) | > 125 | > 125 | 16 (≈ 28.3 µM) | 62 (≈ 110 µM) |  |  |  |  |  | 
CCCCCC(=O)O[C@@H]1[C@H](OCC23C[C@@H]4[C@H](C)CC[C@H]4C4(C=O)CC2C=C(C(C)C)C34C(=O)O)O[C@H](C)C(OC)[C@H]1O (single isomer, unassigned) |  |  |  |  |  |  | 31 (≈ 52.5 µM) | 31 (≈ 52.5 µM) | 31 (≈ 52.5 µM) | 62 (≈ 105 µM) | 31 (≈ 52.5 µM) | 8 (≈ 13.5 µM)
CCCCCC(=O)O[C@H]1[C@H](OC(=O)CCCCC)[C@H](OCC23C[C@@H]4[C@H](C)CC[C@H]4C4(C=O)CC2C=C(C(C)C)C34C(=O)O)O[C@H](C)[C@H]1OC (some centres undefined) |  |  |  |  |  |  | > 125 | 8 (≈ 11.6 µM) | 8 (≈ 11.6 µM) | > 125 | > 125 | 4 (≈ 5.81 µM)
